Reference: ChEMBL document CHEMBL1153934, “Quantitative structure-activity relationship (QSAR) for a series of novel cannabinoid derivatives using descriptors derived from semi-empirical quantum-chemical calculations” (Bioorg Med Chem, 2009)

Assays:
Cannabinoid receptor 1 = Cannabinoid receptor 1 (Homo sapiens, UniProt P21554); test: Binding affinity to CB1 receptor
Cannabinoid receptor 2 = Cannabinoid receptor 2 (Homo sapiens, UniProt P34972); test: Binding affinity to CB2 receptor
Sequence of Cannabinoid receptor 2 (P34972 whole entry): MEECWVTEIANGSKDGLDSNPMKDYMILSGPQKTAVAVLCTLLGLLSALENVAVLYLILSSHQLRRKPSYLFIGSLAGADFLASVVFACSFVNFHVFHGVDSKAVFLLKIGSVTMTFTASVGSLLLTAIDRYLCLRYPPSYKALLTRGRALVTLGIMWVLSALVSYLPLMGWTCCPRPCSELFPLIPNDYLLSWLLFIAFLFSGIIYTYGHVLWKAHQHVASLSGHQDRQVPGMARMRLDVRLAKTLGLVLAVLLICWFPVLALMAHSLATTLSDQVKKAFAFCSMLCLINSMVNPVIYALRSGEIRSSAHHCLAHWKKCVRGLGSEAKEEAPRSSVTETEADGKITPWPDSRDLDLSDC

Sequence of Cannabinoid receptor 1 (P21554 whole entry): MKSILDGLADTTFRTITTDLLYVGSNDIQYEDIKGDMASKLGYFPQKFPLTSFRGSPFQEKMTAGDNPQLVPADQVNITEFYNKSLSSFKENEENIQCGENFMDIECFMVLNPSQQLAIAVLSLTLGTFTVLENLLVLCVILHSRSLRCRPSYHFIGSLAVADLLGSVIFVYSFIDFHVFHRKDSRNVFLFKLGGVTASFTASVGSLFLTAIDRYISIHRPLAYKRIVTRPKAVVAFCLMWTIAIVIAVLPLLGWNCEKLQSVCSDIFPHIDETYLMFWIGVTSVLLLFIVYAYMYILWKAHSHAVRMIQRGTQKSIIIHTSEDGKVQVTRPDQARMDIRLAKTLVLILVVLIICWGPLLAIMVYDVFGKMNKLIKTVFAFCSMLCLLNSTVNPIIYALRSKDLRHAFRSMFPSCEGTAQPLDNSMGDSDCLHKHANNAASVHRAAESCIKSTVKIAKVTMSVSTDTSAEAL

Row | SMILES | Ki (Cannabinoid receptor 1) [nM] | Ki (Cannabinoid receptor 2) [nM]
1 | CC1=CC[C@@H]2[C@@H](C1)c1c(O)cc(C=C3C4CC5CC(C4)CC3C5)cc1OC2(C)C | 48.6 | 8.9
2 | CC1=CC[C@@H]2[C@@H](C1)c1c(O)cc(C3C4CC5CC(C4)CC3C5)cc1OC2(C)C (stereo not given in full) | 34.9 | 14
3 | CC1=CC[C@@H]2[C@@H](C1)c1c(O)cc(CC3C4CC5CC(C4)CC3C5)cc1OC2(C)C (stereo not given in full) | 79.7 | 76
4 | CC1=CC[C@@H]2[C@@H](C1)c1c(O)cc(CC34CC5CC(CC(C5)C3)C4)cc1OC2(C)C | 29.3 | 26.9
5 | CC(=O)Nc1cccc(C(C)(C)c2cc(O)c3c(c2)OC(C)(C)[C@@H]2CC=C(C)C[C@@H]32)c1 | 13.7 | 13.6
